pIC50: −log10 of the molar value.
test system: not given; experiment: not given; settings: not given

SMILES | melting point
CC1(C)CCc2c(sc3cc(OS(=O)(=O)Cc4ccccc4OC(F)(F)F)ccc3c2=O)C1 [Example 2-14, 3,3-Dimethyl-9-oxo-2,3,4,9-tetrahydro-1H-thioxanthen-6-yl [2-(trifluoromethoxy)-phenyl]methanesulfonate] | 249 °C
CC1(C)CCc2c(sc3cc(NS(C)(=O)=O)ccc3c2=O)C1 [Example 2-11, N-(3,3-Dimethyl-9-oxo-2,3,4,9-tetrahydro-1H-thioxanthen-6-yl)methanesulfonamide] | 272 °C
CC(C)S(=O)(=O)Nc1ccc2c(=O)c3c(sc2c1)CC(C)(C)CC3 [Example 2-15, N-(3,3-Dimethyl-9-oxo-2,3,4,9-tetrahydro-1H-thioxanthen-6-yl)isopropylsulfonamide] | 263 °C
Cc1ccc(S(=O)(=O)Nc2ccc3c(=O)c4c(sc3c2)CC(C)(C)CC4)cc1 [Example 2-13, N-(3,3-Dimethyl-9-oxo-2,3,4,9-tetrahydro-1H-thioxanthen-6-yl)-4-methylbenzenesulfonamide] | 279 °C
CCC1CCc2c(sc3cc(-n4cccc4)ccc3c2=O)C1 (stereo not shown) [Example 2-25, 3-Ethyl-6-(1H-pyrrol-1-yl)-1,2,3,4-tetrahydro-9H-thioxanthen-9-one] | 145 °C
CC1(C)CCc2c(sc3cc(NS(=O)(=O)c4ccccc4)ccc3c2=O)C1 [Example 2-12, N-(3,3-Dimethyl-9-oxo-2,3,4,9-tetrahydro-1H-thioxanthen-6-yl)benzenesulfonamide] | 231 °C
CC1(C)CCc2c(sc3cc(-n4cccc4)ccc3c2=O)C1 [Example 2-24, 3,3-Dimethyl-6-(1H-pyrrol-1-yl)-1,2,3,4-tetrahydro-9H-thioxanthen-9-one] | 169 °C

target: T1, mGluR1 receptor (Homo sapiens, UniProt Q13255); experiment: Determination of the activity on the mGluR1 receptor (luciferase luminescence in mGluR1 receptor-expressing CHO cells stimulated with 1 mM glutamate); type: cell-based; settings: 1 mM glutamate with the test substance, 37° C., 4 h, luminescence readout
T1 construct: expressed in transfected cells; host or cells: CHO cells
Method: 1. Determination of the activity on the mGluR1 receptor
mGluR1 receptor-expressing CHO cells are seeded in 96-well plates (Greiner, Frickenhausen, Germany) (20 000 cells/well) and cultivated in ultra CHO medium (Bio-Whittaker, Walkersville, Md., 10% fetal calf serum) for one day. The substances to be tested are initially dissolved in a concentration of 10^−2 M in 100% DMSO and then diluted to the desired concentration with the culture medium. After being washed once with cell culture medium, the cells are incubated with 1 mM glutamate and simultaneously with the substance to be tested at 37° C. for 4 h. The medium is then aspirated off and the cells are lysed with 75 μl of Triton-luciferase buffer (1% Triton X 100, 10% glycerol, 2 mM DTT, 25 mM Na2HPO4, 25 mM TRIS), (530 μM ATP, 470 μM luciferin, 270 μM CoA, 20 mM tricine, 2.67 mM MgSO4, 33.3 mM DTT, 0.1 mM EDTA, pH 7.8). The luminescence is measured after one minute using a camera (Hamamatsu, Japan). Cells incubated only with glutamate show a marked increase in the luminescence compared with controls, while mGluR1 receptor antagonists reduce this concentration-dependently to below the initial luminscence.

T1 sequence (Q13255 19-1194): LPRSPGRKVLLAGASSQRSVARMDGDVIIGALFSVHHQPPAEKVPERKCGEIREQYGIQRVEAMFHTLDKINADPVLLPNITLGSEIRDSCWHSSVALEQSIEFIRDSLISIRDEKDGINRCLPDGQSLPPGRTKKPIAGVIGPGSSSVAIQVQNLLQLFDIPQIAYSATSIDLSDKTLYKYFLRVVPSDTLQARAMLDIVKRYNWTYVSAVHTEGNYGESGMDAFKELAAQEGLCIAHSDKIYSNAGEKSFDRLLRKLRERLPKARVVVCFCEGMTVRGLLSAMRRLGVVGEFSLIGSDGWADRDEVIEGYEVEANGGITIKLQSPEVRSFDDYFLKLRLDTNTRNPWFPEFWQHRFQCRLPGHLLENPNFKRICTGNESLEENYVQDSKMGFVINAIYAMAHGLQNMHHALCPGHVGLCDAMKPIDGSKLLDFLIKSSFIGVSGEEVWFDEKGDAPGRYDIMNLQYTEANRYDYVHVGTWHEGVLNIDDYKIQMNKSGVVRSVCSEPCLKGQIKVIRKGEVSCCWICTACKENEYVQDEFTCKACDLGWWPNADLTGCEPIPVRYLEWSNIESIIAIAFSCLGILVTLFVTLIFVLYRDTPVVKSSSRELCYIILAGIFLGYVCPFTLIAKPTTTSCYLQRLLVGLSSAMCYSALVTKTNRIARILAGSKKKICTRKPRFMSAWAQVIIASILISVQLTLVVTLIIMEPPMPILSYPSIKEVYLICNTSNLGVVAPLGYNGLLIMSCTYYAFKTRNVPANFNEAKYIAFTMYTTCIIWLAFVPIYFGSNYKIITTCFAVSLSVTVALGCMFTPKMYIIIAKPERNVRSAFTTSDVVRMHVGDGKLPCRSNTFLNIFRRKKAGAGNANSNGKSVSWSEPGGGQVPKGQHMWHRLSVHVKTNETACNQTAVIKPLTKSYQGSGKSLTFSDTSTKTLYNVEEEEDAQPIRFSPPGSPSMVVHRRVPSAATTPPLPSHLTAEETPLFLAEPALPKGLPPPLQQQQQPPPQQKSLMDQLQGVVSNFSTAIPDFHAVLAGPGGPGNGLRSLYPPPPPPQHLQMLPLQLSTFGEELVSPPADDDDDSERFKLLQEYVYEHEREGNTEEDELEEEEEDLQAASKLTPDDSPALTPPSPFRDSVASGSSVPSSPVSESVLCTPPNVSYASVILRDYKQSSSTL

SMILES | pIC50
CCC1CCc2c(sc3cc(N4CCCCC4)ccc3c2=O)C1 (stereo not shown) [Example 3-22, 3-Ethyl-6-(1-piperidinyl)-1,2,3,4-tetrahydro-9H-thioxanthen-9-one] | 7.89
CCC1CCc2c(sc3cc(-c4cccc(C#N)c4)ccc3c2=O)C1 (stereo not shown) [Example 1-29, 3-(3-Ethyl-9-oxo-2,3,4,9-tetrahydro-1H-thioxanthen-6-yl)benzonitrile] | 7.68
CC1(C)CCc2c(sc3cc(-c4cccc(C#N)c4)ccc3c2=O)C1 [Example 1-27, 3-(3,3-Dimethyl-9-oxo-2,3,4,9-tetrahydro-1H-thioxanthen-6-yl)benzonitrile] | 7.64
CCC1CCc2c(sc3cc(N4CCCCC4)c(F)cc3c2=O)C1 (stereo not shown) [Example 3-23, 3-Ethyl-7-fluoro-6-(1-piperidinyl)-1,2,3,4-tetrahydro-9H-thioxanthen-9-one] | 7.55
CCC1CCc2c(sc3cc(N(C)CCOC)ccc3c2=O)C1 (stereo not shown) [Example 3-21, 3-Ethyl-6-[(2-methoxyethyl)(methyl)amino]-1,2,3,4-tetrahydro-9H-thio-xanthen-9-one] | 7.66
CCC(=O)Nc1ccc2c(=O)c3c(sc2c1)CC(CC)CC3 (stereo not shown) [Example 3-49, N-(3-Ethyl-9-oxo-2,3,4,9-tetrahydro-1H-thioxanthen-6-yl)propanamide] | 7.46
CC1(C)CCc2c(sc3cc(-c4cccnc4)ccc3c2=O)C1 [Example 1-31, 3,3-Dimnethyl-6-(3-pyridinyl)-1,2,3,4-tetrahydro-9H-thioxanthen-9-one] | 7.51
CCC1CCc2c(sc3cc(-c4cncnc4)ccc3c2=O)C1 (stereo not shown) [Example 3-55] | 7.46
CCC1CCc2c(sc3cc(N(C)S(=O)(=O)c4cccc(C#N)c4)ccc3c2=O)C1 (stereo not shown) [Example 4-8, 3-Cyano-N-(3-ethyl-9-oxo-2,3,4,9-tetrahydro-1-thioxanthen-6-yl)-N-methylbenzenesulfonamide] | 7.60
CCC1CCc2c(sc3cc(-c4nnn[nH]4)ccc3c2=O)C1 (stereo not shown) [Example 1-3, 3-Ethyl-6-(1H-tetrazol-5-yl)-1,2,3,4-tetrahydro-9H-thioxanthen-9-one] | 8.05
CCC1CCc2c(sc3cc(-c4noc(=O)[nH]4)ccc3c2=O)C1 (stereo not shown) [Example 1-34, 3-(3-Ethyl-9-oxo-2,3,4,9-tetrahydro-1H-thioxanthen-6-yl)-1,2,4-oxadiazol-5(4H)-one] | 7.09
CCC1CCc2c(sc3cc(-c4cccs4)ccc3c2=O)C1 (stereo not shown) [Example 1-10, 3-Ethyl-6-(2-thienyl)-1,2,3,4-tetrahydro-9H-thioxanthen-9-one] | 7.01
